According to PubChem BioAssay AID1259407 (Chemical Carcinogenesis Research Information System (CCRIS), 2018):
Activity calls are given as the source filed them. How the calls were made is not given here.

Test system: CCRIS mutagenicity, Ames/micronucleus/aberration tests
Experiment: CCRIS mutagenicity studies
[1] = Test System: AMES SALMONELLA TYPHIMURIUM, Strain/Indicator: TA1535, Metabolic Activation: NONE, Method: PREINCUBATION
[2] = Test System: AMES SALMONELLA TYPHIMURIUM, Strain/Indicator: TA1537, Metabolic Activation: NONE, Method: PREINCUBATION
[3] = Test System: AMES SALMONELLA TYPHIMURIUM, Strain/Indicator: TA98, Metabolic Activation: NONE, Method: PREINCUBATION
[4] = Test System: AMES SALMONELLA TYPHIMURIUM, Strain/Indicator: TA100, Metabolic Activation: NONE, Method: PREINCUBATION

What does the source list for `COc1ccccc1[N+](=O)[O-]`?
mutagenic call (End Point: IN VITRO CHROMOSOMAL ABERRATIONS, Test System: CHINESE HAMSTER OVARY CELLS, Metabolic Activation: RAT, LIVER, S-9, AROCLOR 1254): active; positive; precipitation occurred at all doses; mutagenic call (End Point: IN VITRO CHROMOSOMAL ABERRATIONS, Test System: CHL CELLS, Metabolic Activation: RAT, LIVER, S-9, SODIUM PHENOBARBITAL AND 5,6-BENZOFLAVONE): active; positive (structural changes); mutagenic call (Test System: AMES SALMONELLA TYPHIMURIUM, Strain/Indicator: TA97, Metabolic Activation: HAMSTER LIVER S-9, AROCLOR 1254 (10%), Method: PREINCUBATION): inactive; negative; mutagenic call (Test System: AMES SALMONELLA TYPHIMURIUM, Strain/Indicator: TA97, Metabolic Activation: NONE, Method: PREINCUBATION): inactive; negative; mutagenic call (Test System: AMES SALMONELLA TYPHIMURIUM, Strain/Indicator: TA97, Metabolic Activation: RAT LIVER S-9, AROCLOR 1254 (10%), Method: PREINCUBATION): inactive; negative; mutagenic call (Test System: AMES SALMONELLA TYPHIMURIUM, Strain/Indicator: TA98, Metabolic Activation: HAMSTER LIVER S-9, AROCLOR 1254 (10%), Method: PREINCUBATION): inactive; negative; mutagenic call (Test System: AMES SALMONELLA TYPHIMURIUM, Strain/Indicator: TA98, Metabolic Activation: RAT LIVER S-9, AROCLOR 1254 (10%), Method: PREINCUBATION): inactive; negative; mutagenic call (Test System: AMES SALMONELLA TYPHIMURIUM, Strain/Indicator: TA98, Metabolic Activation: RAT LIVER S-9, PHENOBARBITAL AND BETA-NAPHTHOFLAVONE, Method: PREINCUBATION): inactive; negative; mutagenic call (Test System: AMES SALMONELLA TYPHIMURIUM, Strain/Indicator: TA98, Metabolic Activation: RAT, LIVER, S-9, KANECHLOR 500, Method: PREINCUBATION): inactive; negative; mutagenic call (Test System: AMES SALMONELLA TYPHIMURIUM, Strain/Indicator: TA100, Metabolic Activation: HAMSTER LIVER S-9, AROCLOR 1254 (10%), Method: PREINCUBATION): active; positive; mutagenic call (Test System: AMES SALMONELLA TYPHIMURIUM, Strain/Indicator: TA100, Metabolic Activation: HAMSTER, LIVER, S-9, AROCLOR 1254, FLAVIN MONONUCLEOTIDE, Method: PREINCUBATION): inactive; negative; mutagenic call (Test System: AMES SALMONELLA TYPHIMURIUM, Strain/Indicator: TA100, Metabolic Activation: HAMSTER, LIVER, S-9, AROCLOR 1254, Method: PREINCUBATION): inactive; negative; mutagenic call (Test System: AMES SALMONELLA TYPHIMURIUM, Strain/Indicator: TA100, Metabolic Activation: RAT LIVER S-9, AROCLOR 1254 (10%), Method: PREINCUBATION): active; positive; mutagenic call (Test System: AMES SALMONELLA TYPHIMURIUM, Strain/Indicator: TA100, Metabolic Activation: RAT LIVER S-9, PHENOBARBITAL AND BETA-NAPHTHOFLAVONE, Method: PREINCUBATION): active; positive; mutagenic call (Test System: AMES SALMONELLA TYPHIMURIUM, Strain/Indicator: TA100, Metabolic Activation: RAT, LIVER, S-9, AROCLOR 1254, FLAVIN MONONUCLEOTIDE, Method: PREINCUBATION): inactive; negative; mutagenic call (Test System: AMES SALMONELLA TYPHIMURIUM, Strain/Indicator: TA100, Metabolic Activation: RAT, LIVER, S-9, AROCLOR 1254, Method: STANDARD PLATE): active; positive; mutagenic call (Test System: AMES SALMONELLA TYPHIMURIUM, Strain/Indicator: TA100, Metabolic Activation: RAT, LIVER, S-9, KANECHLOR 500, Method: PREINCUBATION): active; positive; mutagenic call (Test System: AMES SALMONELLA TYPHIMURIUM, Strain/Indicator: TA1535, Metabolic Activation: HAMSTER LIVER S-9, AROCLOR 1254 (10%), Method: PREINCUBATION): inactive; negative; mutagenic call [1]: inactive; negative; mutagenic call (Test System: AMES SALMONELLA TYPHIMURIUM, Strain/Indicator: TA1535, Metabolic Activation: RAT LIVER S-9, AROCLOR 1254 (10%), Method: PREINCUBATION): inactive; negative; mutagenic call (Test System: AMES SALMONELLA TYPHIMURIUM, Strain/Indicator: TA1535, Metabolic Activation: RAT LIVER S-9, PHENOBARBITAL AND BETA-NAPHTHOFLAVONE, Method: PREINCUBATION): inactive; negative; mutagenic call (Test System: AMES SALMONELLA TYPHIMURIUM, Strain/Indicator: TA1537, Metabolic Activation: HAMSTER LIVER S-9, AROCLOR 1254 (10%), Method: PREINCUBATION): inactive; negative; mutagenic call [2]: inactive; negative; mutagenic call (Test System: AMES SALMONELLA TYPHIMURIUM, Strain/Indicator: TA1537, Metabolic Activation: RAT LIVER S-9, AROCLOR 1254 (10%), Method: PREINCUBATION): inactive; negative; mutagenic call (Test System: AMES SALMONELLA TYPHIMURIUM, Strain/Indicator: TA1537, Metabolic Activation: RAT LIVER S-9, PHENOBARBITAL AND BETA-NAPHTHOFLAVONE, Method: PREINCUBATION): inactive; negative; mutagenic call (Test System: AMES SALMONELLA TYPHIMURIUM, Strain/Indicator: TA1538, Metabolic Activation: NONE, Method: PREINCUBATION): active; positive; mutagenic call (Test System: E.COLI, Strain/Indicator: WP2UVRA, Metabolic Activation: NONE, Method: PREINCUBATION): inactive; negative; mutagenic call (Test System: E.COLI, Strain/Indicator: WP2UVRA, Metabolic Activation: RAT LIVER S-9, PHENOBARBITAL AND BETA-NAPHTHOFLAVONE, Method: PREINCUBATION): inactive; negative

How did the mutagenic call (Test System: AMES SALMONELLA TYPHIMURIUM, Strain/Indicator: TA98, Metabolic Activation: S-9, Method: STANDARD PLATE) turn out when `N=c1ccn2c(n1)O[C@H]1[C@H](O)[C@@H](CO)O[C@H]12` was run?
The mutagenic call was “inactive; negative”.

What about the mutagenic call (Test System: AMES SALMONELLA TYPHIMURIUM, Strain/Indicator: TA100, Metabolic Activation: S-9, Method: STANDARD PLATE) of the same compound?
Its mutagenic call is “inactive; negative”.

What about the mutagenic call (Test System: AMES SALMONELLA TYPHIMURIUM, Strain/Indicator: TA1537, Metabolic Activation: S-9, Method: STANDARD PLATE) of the same compound?
Its mutagenic call is “inactive; negative”.

What about the mutagenic call (Test System: E. COLI, Strain/Indicator: WP2 (HCR), Metabolic Activation: S-9, Method: STANDARD PLATE) of the same compound?
Its mutagenic call is “inactive; negative”.

How did the mutagenic call (Test System: AMES SALMONELLA TYPHIMURIUM, Strain/Indicator: TA98, Metabolic Activation: RAT, LIVER, MICROSOMES, PHENOBARBITAL, Method: STANDARD PLATE) turn out when `COc1c2ccoc2nc2c(OC)cccc12` was run?
The mutagenic call was “active; positive”.

And the mutagenic call (Test System: AMES SALMONELLA TYPHIMURIUM, Strain/Indicator: TA98, Metabolic Activation: RAT, LIVER, S-9, PHENOBARBITAL, Method: STANDARD PLATE)?
Its mutagenic call is “active; positive”.

And the mutagenic call (Test System: AMES SALMONELLA TYPHIMURIUM, Strain/Indicator: TA100, Metabolic Activation: RAT, LIVER, MICROSOMES, PHENOBARBITAL, Method: STANDARD PLATE)?
Its mutagenic call is “active; positive”.

And the mutagenic call (Test System: AMES SALMONELLA TYPHIMURIUM, Strain/Indicator: TA100, Metabolic Activation: RAT, LIVER, S-9, PHENOBARBITAL, Method: STANDARD PLATE)?
The mutagenic call was “active; positive”.

What about the mutagenic call (Test System: AMES SALMONELLA TYPHIMURIUM, Strain/Indicator: TA1535, Metabolic Activation: RAT, LIVER, MICROSOMES, PHENOBARBITAL, Method: STANDARD PLATE) of the same compound?
The mutagenic call was “inactive; negative”.

And the mutagenic call (Test System: AMES SALMONELLA TYPHIMURIUM, Strain/Indicator: TA1538, Metabolic Activation: RAT, LIVER, MICROSOMES, PHENOBARBITAL, Method: STANDARD PLATE)?
Its mutagenic call is “active; positive”.

Which results are given for `Cc1ccc2cc3c(ccc4ccccc43)c3c2c1CC3OS(=O)(=O)O` (stereo not given)?
mutagenic call [3]: active; positive; mutagenic call [4]: active; positive

For `CCCOC(C(=O)OC1CCN(C)CC1)(c1ccccc1)c1ccccc1`, which mutagenic call [3] is on record?
Its mutagenic call is “inactive; negative”.

And the mutagenic call (Test System: AMES SALMONELLA TYPHIMURIUM, Strain/Indicator: TA98, Metabolic Activation: RAT, LIVER, S-9, PHENOBARBITAL AND 5,6-BENZOFLAVONE, Method: PREINCUBATION)?
The mutagenic call was “inactive; negative”.

What about the mutagenic call [4] of the same compound?
The mutagenic call was “inactive; negative”.

And the mutagenic call (Test System: AMES SALMONELLA TYPHIMURIUM, Strain/Indicator: TA100, Metabolic Activation: RAT, LIVER, S-9, PHENOBARBITAL AND 5,6-BENZOFLAVONE, Method: PREINCUBATION)?
Its mutagenic call is “inactive; negative”.

And the mutagenic call [1]?
The mutagenic call was “inactive; negative”.

And the mutagenic call (Test System: AMES SALMONELLA TYPHIMURIUM, Strain/Indicator: TA1535, Metabolic Activation: RAT, LIVER, S-9, PHENOBARBITAL AND 5,6-BENZOFLAVONE, Method: PREINCUBATION)?
Its mutagenic call is “inactive; negative”.

What about the mutagenic call [2] of the same compound?
The mutagenic call was “inactive; negative”.

What about the mutagenic call (Test System: AMES SALMONELLA TYPHIMURIUM, Strain/Indicator: TA1537, Metabolic Activation: RAT, LIVER, S-9, PHENOBARBITAL AND 5,6-BENZOFLAVONE, Method: PREINCUBATION) of the same compound?
The mutagenic call was “inactive; negative”.

What about the mutagenic call (Test System: E. COLI, Strain/Indicator: WP2 UVRA, Metabolic Activation: NONE, Method: PREINCUBATION) of the same compound?
Its mutagenic call is “inactive; negative”.

And the mutagenic call (Test System: E. COLI, Strain/Indicator: WP2 UVRA, Metabolic Activation: RAT, LIVER, S-9, PHENOBARBITAL AND 5,6-BENZOFLAVONE, Method: PREINCUBATION)?
Its mutagenic call is “inactive; negative”.
